# From patent publication US12655116B2, “Substituted isophthalic acid diamides” (Bayer Aktiengesellschaft, priority 2020, dated 2026)
# Tests used:
# ALOMY [1] = experiment: Pre-emergence herbicidal action against ALOMY; assay type: in vivo, Alopecurus myosuroides; conditions: 80 g/ha, pre-emergence, scored visually after 3 weeks vs untreated controls (100% = plants have died, 0% = like control plants)
# Outline: (§1)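 Visual rating at 3 weeks vs untreated pots; 0–100% scale, 100% = plants died. Treatment: aqueous WP/EC spray onto covering soil, 600–800 l/ha, 0.2% wetter, seeds in sandy loam.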
# LOLRI = experiment: Pre-emergence herbicidal action against LOLRI; assay type: in vivo, Lolium rigidum; conditions: 80 g/ha
# Outline: as §1
# SETVI [2] = experiment: Pre-emergence herbicidal action against SETVI; assay type: in vivo, Setaria viridis
# Outline: as §1
# ABUTH [3] = experiment: Pre-emergence herbicidal action against ABUTH; assay type: in vivo, Abutilon theophrasti; conditions: for Pre-emergence action against ABUTH (herbicidal activity): 80 g/ha, scored visually after 3 weeks vs untreated controls (100% = plants have died, 0% = like control plants); for Pre-emergence action against ABUTH (herbicidal activity in percent): dosage 20 g/ha, scored visually after 3 weeks vs untreated controls, 100% = plants have died, 0% = like control plants
# Outline: as §1
# DIGSA [4] = experiment: Pre-emergence herbicidal action against DIGSA; assay type: in vivo, Digitaria sanguinalis
# Outline: as §1
# ECHCG [5] = experiment: Pre-emergence herbicidal action against ECHCG; assay type: in vivo, Echinochloa crus-galli; conditions: 80 g/ha
# Outline: as §1
# AMARE [6] = experiment: Pre-emergence herbicidal action against AMARE; assay type: in vivo, Amaranthus retroflexus
# Outline: as §1
# ECHCG [7] = experiment: Post-emergence herbicidal action against ECHCG; assay type: in vivo, Echinochloa crus-galli
# Outline: (§2)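 Weeds in sandy loam soil received a post-emergence spray at the one-leaf stage. Compounds were applied as WP or EC in water, 600 to 800 l/ha, with 0.2% wetting agent. Activity in % was judged visually after roughly 3 weeks against untreated plants.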
# AVEFA [8] = experiment: Post-emergence herbicidal action against AVEFA; assay type: in vivo, Avena fatua; conditions: 20 g/ha, visual assessment about 3 weeks after treatment, 100% = plants have died, 0% = like control plants
# Outline: as §2
# MATIN [9] = experiment: Pre-emergence herbicidal action against MATIN; assay type: in vivo, Matricaria inodora
# Outline: as §1
# VIOTR [10] = experiment: Post-emergence herbicidal action against VIOTR; assay type: in vivo, Viola tricolor
# Outline: as §2
# SETVI [11] = experiment: Post-emergence herbicidal action against SETVI; assay type: in vivo, Setaria viridis
# Outline: as §2
# ALOMY [12] = experiment: Post-emergence herbicidal action against ALOMY; assay type: in vivo, Alopecurus myosuroides; conditions: visual assessment about 3 weeks after treatment vs untreated controls
# Outline: as §2
# PHBPU [13] = experiment: Post-emergence herbicidal action against PHBPU; assay type: in vivo, Pharbitis purpurea
# Outline: as §2
# MATIN [14] = experiment: Post-emergence herbicidal action against MATIN; assay type: in vivo, Matricaria inodora
# Outline: as §2
# PHBPU [15] = experiment: Pre-emergence herbicidal action against PHBPU; assay type: in vivo, Pharbitis purpurea; conditions: dosage 80 g/ha
# Outline: as §1
# POLCO = experiment: Pre-emergence herbicidal action against POLCO; assay type: in vivo, Polygonum convolvulus; conditions: dosage 80 g/ha
# Outline: as §1
# AVEFA [16] = experiment: Pre-emergence herbicidal action against AVEFA; assay type: in vivo, Avena fatua; conditions: 80 g/ha, pre-emergence
# Outline: as §1
# VIOTR [17] = experiment: Pre-emergence herbicidal action against VIOTR; assay type: in vivo, Viola tricolor
# Outline: as §1
# ABUTH [18] = experiment: Post-emergence herbicidal action against ABUTH; assay type: in vivo, Abutilon theophrasti; conditions: visual assessment about 3 weeks after treatment vs untreated controls
# Outline: as §2
# DIGSA [19] = experiment: Post-emergence herbicidal action against DIGSA; assay type: in vivo, Digitaria sanguinalis
# Outline: as §2
# AMARE [20] = experiment: Post-emergence herbicidal action against AMARE; assay type: in vivo, Amaranthus retroflexus; conditions: 20 g/ha, visual assessment about 3 weeks after treatment, 100% = plants have died, 0% = like control plants
# Outline: as §2
# [21] = 20 g/ha, scored visually after 3 weeks vs untreated controls, 100% = plants have died, 0% = like control plants
# [22] = 80 g/ha, scored visually after 3 weeks vs untreated controls (100% = plants have died, 0% = like control plants)
structure (smiles),measurement,setting,value
CCn1nnnc1NC(=O)c1ccc(Br)c(C(=O)NCC(F)F)c1Cl [Example 2-182],Pre-emergence action against ALOMY (herbicidal activity),ALOMY [1],80%
same,Pre-emergence action against LOLRI in %,LOLRI,80%
same,Pre-emergence action against SETVI in %,SETVI [2]; dosage 20 g/ha,90%
same,Pre-emergence action against SETVI in %,SETVI [2]; dosage 80 g/ha,100%
same,Pre-emergence action against ABUTH (herbicidal activity),ABUTH [3],100%
same,Pre-emergence action against ABUTH (herbicidal activity in percent),ABUTH [3],100%
same,Pre-emergence action against DIGSA in %,DIGSA [4]; dosage 20 g/ha,100%
same,Pre-emergence action against DIGSA in %,DIGSA [4]; dosage 80 g/ha,100%
same,Pre-emergence action against ECHCG in %,ECHCG [5],100%
same,Pre-emergence action against AMARE in %,AMARE [6]; [21],100%
same,Pre-emergence action against AMARE in %,AMARE [6]; [22],100%
same,Post-emergence action against ECHCG in %,ECHCG [7]; dosage 5 g/ha,90%
same,Post-emergence action against ECHCG in %,ECHCG [7]; dosage 20 g/ha,90%
same,Post-emergence action at 20 g/ha against AVEFA in %,AVEFA [8],80%
same,Pre-emergence action against MATIN in %,MATIN [9]; dosage 20 g/ha,90%
same,Pre-emergence action against MATIN in %,MATIN [9]; dosage 80 g/ha,100%
same,Post-emergence action against VIOTR in %,VIOTR [10]; 20 g/ha,100%
same,Post-emergence action against SETVI in %,SETVI [11]; dosage 5 g/ha,90%
same,Post-emergence action against SETVI in %,SETVI [11]; dosage 20 g/ha,100%
same,Post-emergence action against ALOMY in %,ALOMY [12]; dosage 5 g/ha,80%
same,Post-emergence action against ALOMY in %,ALOMY [12]; dosage 20 g/ha,100%
same,Post-emergence action against PHBPU in %,PHBPU [13]; dosage 5 g/ha,80%
same,Post-emergence action against PHBPU in %,PHBPU [13]; dosage 20 g/ha,90%
same,Post-emergence action against MATIN in %,MATIN [14]; dosage 5 g/ha,90%
same,Post-emergence action against MATIN in %,MATIN [14]; dosage 20 g/ha,90%
same,Pre-emergence action against PHBPU in %,PHBPU [15],90%
same,Pre-emergence action against POLCO in %,POLCO,90%
same,Pre-emergence action against AVEFA in %,AVEFA [16],90%
same,Pre-emergence action against VIOTR in %,VIOTR [17]; dosage 20 g/ha,100%
same,Pre-emergence action against VIOTR in %,VIOTR [17]; dosage 80 g/ha,100%
CCn1nnnc1NC(=O)c1ccc(I)c(C(=O)NC)c1Cl [Example 2-195],Pre-emergence action against ALOMY (herbicidal activity),ALOMY [1],100%
same,Pre-emergence action against LOLRI in %,LOLRI,90%
same,Pre-emergence action against SETVI in %,SETVI [2]; dosage 20 g/ha,80%
same,Pre-emergence action against SETVI in %,SETVI [2]; dosage 80 g/ha,100%
same,Pre-emergence action against ABUTH (herbicidal activity),ABUTH [3],100%
same,Pre-emergence action against ABUTH (herbicidal activity in percent),ABUTH [3],100%
same,Pre-emergence action against DIGSA in %,DIGSA [4]; dosage 20 g/ha,90%
same,Pre-emergence action against DIGSA in %,DIGSA [4]; dosage 80 g/ha,100%
same,Pre-emergence action against ECHCG in %,ECHCG [5],80%
same,Pre-emergence action against AMARE in %,AMARE [6]; [21],100%
same,Pre-emergence action against AMARE in %,AMARE [6]; [22],100%
same,Post-emergence action against ABUTH in %,ABUTH [18]; dosage 5 g/ha,100%
same,Post-emergence action against ABUTH in %,ABUTH [18]; dosage 20 g/ha,100%
same,Post-emergence action at 20 g/ha against AVEFA in %,AVEFA [8],80%
same,Pre-emergence action against MATIN in %,MATIN [9]; dosage 20 g/ha,100%
same,Pre-emergence action against MATIN in %,MATIN [9]; dosage 80 g/ha,100%
same,Post-emergence action against DIGSA in %,DIGSA [19]; 5 g/ha,80%
same,Post-emergence action against DIGSA,DIGSA [19]; 20 g/ha,90%
same,Post-emergence action against VIOTR in %,VIOTR [10]; 5 g/ha,100%
same,Post-emergence action against VIOTR in %,VIOTR [10]; 20 g/ha,100%
same,Post-emergence action against SETVI in %,SETVI [11]; dosage 5 g/ha,90%
same,Post-emergence action against SETVI in %,SETVI [11]; dosage 20 g/ha,100%
same,Post-emergence action against ALOMY in %,ALOMY [12]; dosage 5 g/ha,80%
same,Post-emergence action against ALOMY in %,ALOMY [12]; dosage 20 g/ha,100%
same,Post-emergence action against MATIN in %,MATIN [14]; dosage 5 g/ha,80%
same,Post-emergence action against MATIN in %,MATIN [14]; dosage 20 g/ha,90%
same,Pre-emergence action against POLCO in %,POLCO,80%
same,Post-emergence action at 20 g/ha against AMARE in %,AMARE [20],100%
same,Pre-emergence action against AVEFA in %,AVEFA [16],80%
same,Pre-emergence action against VIOTR in %,VIOTR [17]; dosage 20 g/ha,100%
same,Pre-emergence action against VIOTR in %,VIOTR [17]; dosage 80 g/ha,100%
